# In patent US20030186947A1, “Compounds having activity as inhibitors of cytochrome P450RAI” (priority 2000, published 2003):
# Columns and labels:
# Assay in all cases: chimeric receptor transactivation assay
# Type in all cases: cell-based
# Conditions in all cases: value in parentheses
# RARγ = target: T1, RARγ (Homo sapiens, UniProt P13631)
# T1 sequence (P13631 185-419 limits assumed): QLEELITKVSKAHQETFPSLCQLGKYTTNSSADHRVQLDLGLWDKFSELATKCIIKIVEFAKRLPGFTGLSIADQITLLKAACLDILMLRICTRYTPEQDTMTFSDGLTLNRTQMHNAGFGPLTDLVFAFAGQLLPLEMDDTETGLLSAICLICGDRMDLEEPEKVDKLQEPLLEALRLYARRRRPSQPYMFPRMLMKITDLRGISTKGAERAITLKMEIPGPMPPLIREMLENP
# Excerpt: (§1) Assays described below measure the ability of a compound to bind to, and/or activate various retinoid receptor subtypes. When in these assays a compound binds to a given receptor subtype and activates the transcription of a reporter gene through that subtype, then the compound is considered an agonist of that receptor subtype. […] In the below described assays the ability of the compounds to bind to RARα, RARβ, RARγ, RXRα, RXRβ and RXRγ receptors, and the ability or inability of the compounds to activate transcription of a reporter gene through these receptor subtypes can be tested.
# (§2) As far as specific assays are concerned, a chimeric receptor transactivation assay which tests for agonist-like activity in the RARα, RARβ, and RARγ, receptor subtypes, and which is based on work published by Feigner P. L. and Holm M (1989) Focus, 112 is described in detail in U.S. Pat. No. 5,455,265. The specification of U.S. Pat. No. 5,455,265 is hereby expressly incorporated by reference. The numeric results obtained with several preferred compounds of this invention in this assay are shown below in Table 1.
# (§3) A holoreceptor transactivation assay and a ligand binding assay which measure the antagonist/agonist like activity of the compounds of the invention, or their ability to bind to the several retinoid receptor subtypes, respectively, are described in published PCT Application No. WO WO93/11755 (particularly on pages 30-33 and 37-41) published on Jun. 24, 1993, the specification of which is also incorporated herein by reference. A detailed experimental procedure for holoreceptor transactivations has been described by Heyman et al. Cell 68, 397-406, (1992); Allegretto et al. J. Biol. Chem. 268, 26625-26633, and Mangelsdorf et al. The Retinoids: Biology, Chemistry and Medicine, pp 319-349, Raven Press Ltd., New York, which are expressly incorporated herein by reference. The results obtained in this assay are expressed in EC50 numbers, as they are also in the chimeric receptor transactivation assay. The results of ligand binding assay are expressed in Kd numbers. (See Cheng et al. Biochemical Pharmacology Vol. 22 pp 3099-3108, expressly incorporated herein by reference.)
# RARβ = target: T2, RARβ (Homo sapiens, UniProt P10826)
# T2 sequence (P10826 183-417 limits assumed): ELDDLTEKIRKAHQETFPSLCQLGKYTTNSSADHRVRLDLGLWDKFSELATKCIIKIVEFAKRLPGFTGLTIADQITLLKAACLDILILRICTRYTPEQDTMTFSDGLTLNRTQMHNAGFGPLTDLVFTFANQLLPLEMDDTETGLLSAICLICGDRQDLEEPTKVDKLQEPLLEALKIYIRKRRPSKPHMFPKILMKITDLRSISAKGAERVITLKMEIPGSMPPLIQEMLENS
# Excerpt: as §1
# As far as specific assays are concerned, a chimeric receptor transactivation assay which tests for agonist-like activity in the RARα, RARβ, and RARγ, receptor subtypes, and which is based on work published by Feigner P. L. and Holm M (1989) Focus, 112 is described in detail in U.S. Pat. No. 5,455,265. The specification of U.S. Pat. No. 5,455,265 is hereby expressly incorporated by reference.
# as §3, with “A detailed experimental procedure for holoreceptor transactivations has been described by Heyman et al. Cell 68, 397-406, (1992); Allegretto et al. J. Biol. Chem. 268, 26625-26633, and Mangelsdorf et al. The Retinoids: Biology, Chemistry and Medicine, pp 319-349, Raven Press Ltd., New York, which are expressly incorporated herein by reference.” left out
# RARα = target: T3, RARα (Homo sapiens, UniProt P10276)
# T3 sequence (P10276 183-417 limits assumed): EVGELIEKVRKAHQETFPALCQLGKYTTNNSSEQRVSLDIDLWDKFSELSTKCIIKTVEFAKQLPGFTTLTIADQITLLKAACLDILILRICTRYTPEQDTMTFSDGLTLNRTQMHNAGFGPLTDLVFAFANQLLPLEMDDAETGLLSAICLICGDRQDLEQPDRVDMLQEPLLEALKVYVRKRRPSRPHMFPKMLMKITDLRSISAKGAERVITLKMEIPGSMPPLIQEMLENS
# Excerpt: as §1, §2, §3
Structure (SMILES),RAR (EFFICACY) γ (RARγ),RAR (EFFICACY) β (RARβ),RAR (EFFICACY) α (RARα)
"Cc1cc(C#Cc2ccc(C(=O)O)cc2)ccc1C1(OCc2ccccc2)CC1 [Compound 81, 4-[4-(l -Benzyloxycyclopropyl)-3-methyl-phenylethynyl]-benzoic acid]",(67),(80),
"COC1(c2ccc(C#Cc3ccc(C(=O)O)cc3)cc2)CC1 [Compound 69, 4-[4-(1-Methoxycyclopropyl)-phenylethynyl]-benzoic acid]",(31),(50),(10)
"CC1(C)CC2(CC2)Oc2ccc(C#Cc3ccc(C(=O)O)cc3)cc21 [Compound 40, Benzoic acid 4-[(3,4-dihydro-4,4-dimethylspiro[2H-1-benzopyran-2,1′-cyclopropane]-6-yl)ethynyl]-]",(140),(126),(207)
"CN(C1CC1)C1CCC(C)(C)c2cc(C#Cc3ccc(C(=O)O)cc3)ccc21 (centres unmarked) [Compound 3, 4-[(5-Cyclopropyl-methyl-amino)-8,8-dimethyl-5,6,7,8-tetrahydro-naphthalene-2yl-ethynyl]-benzoic acid]",(52),(54),(28)
"CN(C1CC1)C1CCC(C)(C)c2cc(C#Cc3ccc(CC(=O)O)cc3)ccc21 (centres unmarked) [Compound 8, 4-[(5-(Cyclopropyl-methyl-amino)-8,8-dimethyl-5,6,7,8-tetrahydro-naphthalene-2-yl-ethynyl)-phenyl]-acetic acid]",,(96),
"Cc1cc(C#Cc2ccc(C(=O)O)cc2)ccc1C1(OCC(C)(C)C)CC1 [Compound 89, 4-[4-[1-(2,2-Dimethylpropyloxy)-cyclopropyl]-3-methyl-phenylethynyl]-benzoic acid]",(46),(50),(20)
"CCc1cc(C#Cc2ccc(C(=O)O)cc2)ccc1C1(OCc2ccccc2)CC1 [Compound 93, 4-[4-(1-Benzyloxycyclopropyl)-3-ethyl-phenylethynyl]-benzoic acid]",(55),(39),(114)
"Cc1cc(C#Cc2ccc(C(=O)O)cc2)ccc1C1(OC(C)C)CC1 [Compound 85, 4-[4-(1-Isopropoxycyclopropyl)-3-methyl-phenylethynyl]-benzoic acid]",(65),(77),(60)
"CCCNC1(c2ccc(C#Cc3ccc(C(=O)O)cc3)cc2)CC1 [Compound 108, 4-[4-(1-Propylamino-cyclopropyl)-phenylethynyl]-benzoic acid]",(10),(36),(15)
"CC1(C)CCC(=O)c2ccc(C#Cc3ccc(C(=O)O)c(F)c3)cc21 [Compound 10, 2-Fluoro-4-(8,8-dimethyl-5-oxo-5,6,7,8-tetrahydro-naphthalen-2yl-ethynyl)-benzoic acid]",(94),(86),(146)
"CC(C)OC1(c2ccc(C#Cc3ccc(C(=O)O)cc3)cc2)CC1 [Compound 73, 4-[4-(1-Isopropoxycyclopropyl)-phenylethynyl]-benzoic acid]",(24),(39),
"CN(C1CC1)C1CCC(C)(C)c2cc(C#Cc3ccc(C(=O)O)c(F)c3)ccc21 (centres unmarked) [Compound 13, 4-[5-(Cyclopropyl-methyl-amino)-8,8-dimethyl-5 6,7,8-tetrahydro-naphthalene-2-yl-ethynyl]-2-fluoro benzoic acid]",(9),(6.6),
"CC1(C)CC2(CC2)Oc2ccc(C#Cc3ccc(C(=O)O)c(F)c3)cc21 [Compound 44, 2-Fluoro-benzoic acid, 4-[(3,4-dihydro-4,4-dimethylspiro[2H-1-benzopyran-2,1′-cyclopropane]-6-yl)ethynyl]-]",(116),(100),(138)
"CC1(C)CCC(=O)c2ccc(C#Cc3ccc(CC(=O)O)cc3)cc21 [Compound 5, 4-[(8,8-Dimethyl-5-oxo-5,6,7,8-tetrahydro-naphthalene-2-yl-ethynyl)-phenyl]-acetic acid]",,(36),
"CCCN(CCC)C1(c2ccc(C#Cc3ccc(C(=O)O)cc3)cc2)CC1 [Compound 110, 4-[4-(1-Dipropylamino-cyclopropyl)-phenylethynyl]-benzoic acid]",(42),(44),
"O=C(O)c1ccc(C#Cc2ccc(C3(NCc4ccccc4)CC3)cc2)cc1 [Compound 112, 4-[4-(1-Benzylamino-cyclopropyl)-phenylethynyl]-benzoic acid]",,(37),
